This assay has as its target T1, AcrB (Escherichia coli, UniProt P31224).
T1 construct: full-length, His-tagged (pET24acrBHis), from E. coli C43(DE3) delta-acrAB; homotrimer, DDM-solubilised; crystallised with DARPins
Briefly: X-ray co-crystal structure. It is filed as binding. To be noted: DARPin chaperone.

The text below walks through data of PMC8242077, “Allosteric drug transport mechanism of multidrug transporter AcrB” (Nature Communications, 2021).

T1 sequence (P31224 whole entry): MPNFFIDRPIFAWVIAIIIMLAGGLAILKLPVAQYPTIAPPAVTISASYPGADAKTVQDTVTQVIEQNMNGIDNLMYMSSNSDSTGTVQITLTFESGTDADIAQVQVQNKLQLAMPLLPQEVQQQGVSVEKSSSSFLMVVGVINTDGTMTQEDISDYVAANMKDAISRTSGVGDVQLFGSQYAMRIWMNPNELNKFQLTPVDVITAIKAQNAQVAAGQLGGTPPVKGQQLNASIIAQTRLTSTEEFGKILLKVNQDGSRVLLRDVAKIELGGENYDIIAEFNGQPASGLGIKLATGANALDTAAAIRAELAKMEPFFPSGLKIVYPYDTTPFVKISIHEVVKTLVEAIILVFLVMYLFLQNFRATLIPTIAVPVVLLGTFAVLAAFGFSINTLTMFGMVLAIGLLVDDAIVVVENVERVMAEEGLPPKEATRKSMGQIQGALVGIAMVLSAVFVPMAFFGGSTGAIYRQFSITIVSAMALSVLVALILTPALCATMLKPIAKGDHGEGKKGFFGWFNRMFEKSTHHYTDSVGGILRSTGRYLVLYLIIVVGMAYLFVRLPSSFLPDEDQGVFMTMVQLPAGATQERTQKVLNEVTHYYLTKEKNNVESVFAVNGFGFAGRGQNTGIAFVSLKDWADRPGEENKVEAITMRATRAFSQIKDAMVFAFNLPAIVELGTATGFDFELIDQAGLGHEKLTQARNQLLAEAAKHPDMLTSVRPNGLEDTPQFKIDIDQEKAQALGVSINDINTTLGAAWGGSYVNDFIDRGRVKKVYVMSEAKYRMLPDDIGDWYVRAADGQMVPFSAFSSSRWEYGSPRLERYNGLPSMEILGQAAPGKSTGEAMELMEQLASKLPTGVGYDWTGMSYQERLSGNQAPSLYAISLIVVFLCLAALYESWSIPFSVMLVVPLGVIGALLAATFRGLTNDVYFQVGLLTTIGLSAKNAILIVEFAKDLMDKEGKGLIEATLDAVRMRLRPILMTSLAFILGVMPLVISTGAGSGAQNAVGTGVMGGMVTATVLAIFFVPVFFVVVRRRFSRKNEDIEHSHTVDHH

With `CO[C@H]1/C=C/O[C@@]2(C)Oc3c(C)c(O)c4c(O)c(c(C=O)c(O)c4c3C2=O)NC(=O)/C(C)=C\C=C\[C@H](C)[C@H](O)[C@@H](C)[C@@H](O)[C@@H](C)[C@H](OC(C)=O)[C@@H]1C` [3-formylrifamycin SV], the X-ray co-crystal structure entry (access pocket of L protomer, crystallised with 3 mM rifampicin) is listed as “co-crystal AcrB/3-formylrifamycin SV (3-FOR) structure”.

For `CC(=O)O[C@H]1C[C@@]2(C)[C@@H](C[C@@H](O)[C@H]3[C@@]4(C)CC[C@@H](O)[C@@H](C)[C@@H]4CC[C@@]32C)/C1=C(\CCC=C(C)C)C(=O)O` [fusidic acid], the X-ray co-crystal structure entry (T protomer: TMD-BP, TM1/TM2 groove and TM7/TM8 groove, co-crystallised with 1 mM each fusidic acid, erythromycin, linezolid, oxacillin) was “co-structure with FUA bound to a deep concave crevice surrounded by TM2, TM4, TM10-12”.
